From publication doi:10.1101/2023.07.10.548257 (bioRxiv, 2024) come the findings set out here.

pEC50: −log10 of the molar value.

This assay addresses T1, full-length SHP2^WT (Homo sapiens, UniProt Q06124).
T1 construct: Full-length SHP2 constructs were diluted in assay buffer; His6-TEV (N, cleaved yes); made in house; host or cells: E. coli BL21(DE3)
T1 sequence (Q06124 1-593): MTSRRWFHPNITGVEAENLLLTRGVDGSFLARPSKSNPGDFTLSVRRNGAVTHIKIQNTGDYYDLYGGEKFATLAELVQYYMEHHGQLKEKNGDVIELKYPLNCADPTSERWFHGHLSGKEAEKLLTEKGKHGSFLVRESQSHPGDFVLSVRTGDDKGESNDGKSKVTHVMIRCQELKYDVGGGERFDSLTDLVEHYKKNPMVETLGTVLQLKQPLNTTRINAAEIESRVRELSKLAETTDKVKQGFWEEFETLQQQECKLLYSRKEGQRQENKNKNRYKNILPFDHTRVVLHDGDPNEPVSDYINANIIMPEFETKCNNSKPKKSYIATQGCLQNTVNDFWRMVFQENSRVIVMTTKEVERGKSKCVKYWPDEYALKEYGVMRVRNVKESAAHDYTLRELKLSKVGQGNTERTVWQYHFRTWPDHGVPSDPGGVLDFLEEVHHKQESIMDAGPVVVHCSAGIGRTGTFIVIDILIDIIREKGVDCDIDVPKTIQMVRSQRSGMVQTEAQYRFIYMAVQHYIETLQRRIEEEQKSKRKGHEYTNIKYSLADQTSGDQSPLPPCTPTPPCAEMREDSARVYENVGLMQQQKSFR
As to the kind of experiment: SHP2 activation assay using phosphopeptides (DiFMUP), SHP2 WT. It counts as biochemical. The note with it: activation of full-length SHP2 WT (0.05 nM) by phosphopeptide; DiFMUP substrate; 60 mM HEPES pH 7.2, 75 mM KCl, 75 mM NaCl, 1 mM EDTA, 0.05% Tween-20, 0.5 mM TCEP; fluorescence read every 25 s for 6 min; mean of N (column N). Here is the method:
SHP2 activation assays using phosphopeptides
Full-length SHP2 constructs were diluted in assay buffer (60 mM HEPES pH 7.2, 75 mM KCl, 75 mM NaCl,1 mM EDTA, 0.05% Tween-20, with 0.5 mM TCEP freshly added) to a 2X concentration of 0.1 nM. Peptides were serially diluted in assay buffer, with the last point of the concentration series fully without peptide. 15 μL of peptide and 15 μL of 800 μM DiFMUP was added to a black 96-well half area plate. Right before starting the plate reader assay, 30 μL SHP2 was added to each well a Supplementary Information - page 4 of 18 […]
final concentration of 0.05nM. Kinetic measurements (Ex 358/Em […]) were taken on a BioTek Neo2 plate reader every 25 seconds for 6 minutes. […]
OD600 reached 0.5. 20 mL of cell suspension was induced at 25 °C using a final concentration of 0.4% arabinose until the OD600 ~ 1 (after approximately 4 hours). The cells were spun down at 4000 rpm for 15 minutes, and the pellet was resuspended in PBS so that the OD600 ~1.5. The cells were stored in the fridge and used within a week.
For each sample, 75 μL of Dynabeads™ FlowComp™ Flexi Kit were washed twice in 1 mL SH2 buffer (50 mM HEPES pH 7.5, 150 mM NaCl, 1 mM TCEP, and 0.2% BSA) on a magnetic rack.
The beads were then resuspended in 75 μL of SH2 buffer. SH2 domains were thawed quickly and 20 μM of protein was added to the beads. SH2 buffer was added up to 150 μL, and the suspension was incubated for 1 hour at 4 °C while rotating. After 1 hour, the suspension was placed on a magnetic rack and washed twice with 1 mL SH2 buffer.
Preparing the phosphorylated cells
150 μL of prepared cells per sample were spun down for 4000 rpm for 5 minutes at 4 °C.
Kinase screen buffer was prepared (50 mM Tris, 10 mM magnesium chloride, 150 mM sodium chloride; add 2 mM sodium orthovanadate and 1 mM TCEP fresh) and the cells of each sample were resuspended in 100 μL kinase screen buffer. Kinases c-Src, c-Abl, AncSZ, Eph1B were added to a final concentration of 2.5 µM each, creatine phosphate was added to a final concentration of 5 mM, and phosphokinase was added to a final concentration of 50 µg/mL. The suspension was incubated at 37 °C for 5 minutes before ATP was added to a final concentration of 1 mM. This mixture was incubated at 37 °C for 3 hours. After 3 hours, EDTA was added to a final concentration of 25 mM to quench the reaction. The input library control sample was not phosphorylated. These cells were spun down at 4000 rpm for 15 minutes at 4 °C. The cells were then resuspended in 100 µL of SH2 buffer + 0.1% BSA. Phosphorylation of the cells was confirmed by labeling with the PY20-PerCP-eFluor 710 pan-phosphotyrosine antibody followed by analysis via flow cytometry.
Enriching for cells displaying high-affinity phosphopeptide ligands
100 μL of phosphorylated cells were mixed with 75 µL SH2-beads for 1 hour at 4 °C while rotating. After 1 hour, samples were placed on a magnetic rack, supernatant was removed and 1 mL SH2 buffer was added to each sample. This was rotated for 30 minutes at 4 °C to wash the beads.
After this wash, the beads were placed on a magnetic rack, the supernatant was removed and 50 µL […]
Preparing sequencing samples & deep sequencing
All SH2-selected samples and the input library control were resuspended in 50 µL MilliQ water, vortexed, and boiled for 10 minutes at 100 °C. The boiled lysate was used as the DNA template in a PCR reaction using the TruSeq-eCPX-Fwd and TruSeq-eCPX-Rev primers. The mixture resulting from this PCR was used directly into a second PCR to append Illumina sequencing adaptors and Supplementary Information - page 5 of 18
A word on the pEC50: it is the negative decadic logarithm of the EC50, by convention in mol/L. With `CC[C@H](C)[C@H](NC(=O)[C@@H](NC(=O)[C@H](C)NC(=O)[C@H](Cc1ccc(OP(=O)(O)O)cc1)NC(=O)[C@@H](NC(=O)[C@@H]1CCCN1C(=O)[C@H](CCC(=O)O)NC(=O)[C@@H]1CCCN1C(=O)[C@H](CO)NC(=O)[C@@H](NC(C)=O)C(C)C)[C@@H](C)CC)[C@@H](C)O)C(=O)N[C@@H](CC(=O)O)C(=O)N[C@@H](CC(=O)O)C(=O)N[C@@H](CC(C)C)C(N)=O`, the pEC50 was 4.40.
Then `CC(=O)N[C@@H](CO)C(=O)N[C@H](C(=O)NCC(=O)N[C@@H](CO)C(=O)N[C@H](C(=O)N[C@@H](CC(=O)O)C(=O)N[C@@H](Cc1ccc(OP(=O)(O)O)cc1)C(=O)N[C@@H](CC(C)C)C(=O)N[C@@H](C)C(=O)N[C@@H](CC(C)C)C(=O)N[C@@H](CC(=O)O)C(=O)N[C@@H](Cc1ccccc1)C(=O)N[C@@H](CCC(N)=O)C(N)=O)C(C)C)[C@@H](C)O`, with 5.07.
With `CC[C@H](C)[C@H](NC(=O)[C@H](Cc1ccc(OP(=O)(O)O)cc1)NC(=O)[C@H](CC(N)=O)NC(=O)[C@H](CC(C)C)NC(=O)CNC(=O)[C@H](CC(N)=O)NC(=O)[C@H](CCC(=O)O)NC(=O)[C@H](CC(C)C)NC(C)=O)C(=O)N[C@@H](CC(=O)O)C(=O)N[C@@H](CC(C)C)C(=O)N[C@@H](CC(=O)O)C(=O)N[C@@H](CC(C)C)C(=O)N[C@H](C(N)=O)C(C)C` the figure was 5.76; with `CC[C@H](C)[C@H](NC(=O)[C@H](CC(N)=O)NC(=O)[C@@H](NC(=O)[C@H](Cc1ccc(OP(=O)(O)O)cc1)NC(=O)[C@H](CCC(=O)O)NC(=O)CNC(=O)[C@@H]1CCCN1C(=O)[C@H](CO)NC(=O)[C@H](CCCCN)NC(=O)[C@@H]1CCCN1C(C)=O)C(C)C)C(=O)N[C@@H](CCC(=O)O)C(=O)N[C@@H](Cc1ccccc1)C(=O)NCC(N)=O`, 4.53; with `CSCC[C@H](NC(=O)[C@H](CC(C)C)NC(=O)[C@H](CCC(N)=O)NC(=O)[C@H](C)NC(=O)[C@H](Cc1ccc(OP(=O)(O)O)cc1)NC(=O)[C@H](CC(N)=O)NC(=O)[C@H](CC(C)C)NC(=O)[C@H](C)NC(=O)[C@H](C)NC(=O)[C@H](CCCCN)NC(=O)[C@H](CCCCN)NC(C)=O)C(=O)N[C@@H](Cc1ccccc1)C(=O)N1CCC[C@H]1C(N)=O`, 5.88.
`CC(=O)N[C@@H](C)C(=O)N[C@@H](CCCCN)C(=O)N[C@@H](CO)C(=O)NCC(=O)N[C@@H](C)C(=O)N[C@H](C(=O)N[C@@H](Cc1ccc(OP(=O)(O)O)cc1)C(=O)N[C@@H](CO)C(=O)N[C@@H](CCC(=O)O)C(=O)N[C@@H](CC(C)C)C(=O)N[C@@H](CC(N)=O)C(=O)N[C@@H](Cc1ccccc1)C(=O)NCC(N)=O)C(C)C` showed a negative-log EC50 (pEC50) of 3.63.
With `CC(=O)N1CCC[C@H]1C(=O)N[C@H](C(=O)N[C@@H](Cc1ccccc1)C(=O)N[C@@H](CO)C(=O)N[C@H](C(=O)N[C@@H](CC(=O)O)C(=O)N[C@@H](Cc1ccc(OP(=O)(O)O)cc1)C(=O)NCC(=O)N[C@@H](CCC(=O)O)C(=O)N[C@@H](CC(C)C)C(=O)N[C@@H](CC(=O)O)C(=O)N[C@@H](Cc1ccccc1)C(=O)N[C@@H](CCC(N)=O)C(N)=O)C(C)C)C(C)C` the figure was 4.72.
The molecule `CC[C@H](C)[C@H](NC(=O)[C@@H](NC(=O)[C@H](C)NC(=O)[C@H](Cc1ccc(OP(=O)(O)O)cc1)NC(=O)[C@H](CCC(=O)O)NC(=O)[C@@H](NC(=O)[C@H](CCC(N)=O)NC(=O)[C@H](CCC(=O)O)NC(=O)[C@@H]1CCCN1C(=O)[C@@H](NC(C)=O)C(C)C)[C@@H](C)O)[C@@H](C)O)C(=O)N[C@H](C(=O)N[C@@H](Cc1ccccc1)C(=O)N1CCC[C@H]1C(N)=O)C(C)C` showed a pEC50 of 5.27.
Then `CC[C@H](C)[C@H](NC(=O)[C@H](CC(=O)O)NC(=O)[C@H](C)NC(=O)[C@H](Cc1ccc(OP(=O)(O)O)cc1)NC(=O)[C@H](CCCCN)NC(=O)[C@@H](NC(=O)[C@H](CC(=O)O)NC(=O)CNC(=O)[C@H](CCCCN)NC(=O)[C@H](CCSC)NC(C)=O)C(C)C)C(=O)N[C@@H](CCC(=O)O)C(=O)N[C@@H](CO)C(=O)N[C@@H](CO)C(N)=O`, with 4.04.
